Assay results published in the NIST ThermoML archive (doi:10.1021/acs.jced.7b01035).

Conditions: 500 kPa, Liquid, Concentric cylinders viscometry

NCCCO [3-amino-1-propanol]
Conditions | viscosity [mPa·s]
298.15 K | 30.43
303.15 K | 23.87
308.15 K | 19.07
313.15 K | 15.27
318.15 K | 12.36
323.15 K | 10.22
328.15 K | 8.54
333.15 K | 7.12
338.15 K | 6.05
343.15 K | 4.84
348.15 K | 4.17
353.15 K | 3.63
358.15 K | 3.19
363.15 K | 2.73
368.15 K | 2.52
373.15 K | 2.25
